Assay results as given in patent publication US8722849B2, “Polypeptides” (Novo Nordisk A/S, priority 2011, dated 2014).
≈ marks a conversion by molar mass, not a printed value. Read-outs that look alike come from different tables or passages of the source. Starred links: 1 amine or outer side, 2 acyl side, 3 side chain; linkers in the order of their positions; H or OH if unused. Positions of bridges follow the written chain, without caps; N, C: chain ends. Residues, ends and D or L forms follow the SMILES beside them. *: point of attachment. C20 diacid = O=C(O)CCCCCCCCCCCCCCCCCCC(=O)*; γGlu = O=C(O)[C@H](CCC(=O)[*:2])N[*:1]

Columns and labels:
[1] = target: T1, human calcitonin receptor (Homo sapiens, UniProt P30988); assay: Assay (II)a functional CRE-luciferase assay, human calcitonin receptor; format: cell-based; conditions: Table 7; human calcitonin (CTa) receptor
T1 construct: expressed in transfected cells; host or cells: BHK570
T1 sequence (P30988 25-474): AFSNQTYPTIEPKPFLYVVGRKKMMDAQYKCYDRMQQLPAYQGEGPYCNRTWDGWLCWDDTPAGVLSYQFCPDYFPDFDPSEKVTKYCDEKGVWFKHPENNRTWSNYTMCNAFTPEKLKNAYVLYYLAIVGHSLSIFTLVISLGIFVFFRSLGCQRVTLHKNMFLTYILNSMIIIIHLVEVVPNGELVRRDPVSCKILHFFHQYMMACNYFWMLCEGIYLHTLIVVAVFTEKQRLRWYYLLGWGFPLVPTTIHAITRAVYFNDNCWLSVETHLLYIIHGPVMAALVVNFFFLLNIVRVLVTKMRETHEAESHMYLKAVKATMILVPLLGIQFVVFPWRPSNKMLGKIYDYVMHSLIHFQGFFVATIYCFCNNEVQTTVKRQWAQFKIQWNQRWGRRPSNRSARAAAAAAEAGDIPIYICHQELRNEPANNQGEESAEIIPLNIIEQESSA

[2] = Assay (III) ThT fibrillation assay for physical stability; format: physicochemical; conditions: ThT fibrillation assay
In short: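 Freshly prepared formulations, pH-adjusted, with 1 μM ThT; four or eight replicates incubated at 37 °C under 960 rpm orbital shaking. Fluorescence (ex 444/em 485 nm) read every 20 min; […]. Peptide concentration measured by RP-HPLC before and after the run.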

[3] = target: T2, human amylin receptor (amylin 3(a) receptor: human calcitonin receptor + RAMP-3) (Homo sapiens, UniProt O60896+P30988); assay: Assay (II)a functional CRE-luciferase assay, human amylin receptor; format: cell-based; conditions: Table 2; BHK amylin 3(a)-receptor/CRE-luc cells
T2 construct: expressed in transfected cells; host or cells: BHK570
T2 sequence (P30988 25-474): T1 sequence (P30988 25-474)
T2 sequence (O60896 24-148 partner): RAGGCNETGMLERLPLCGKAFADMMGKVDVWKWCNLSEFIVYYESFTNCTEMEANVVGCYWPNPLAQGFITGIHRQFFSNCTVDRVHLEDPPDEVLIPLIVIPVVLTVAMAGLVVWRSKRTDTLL

[4] = Assay (IV) determination of solubility; format: physicochemical
In short: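 Stock ~500 nmol/ml in water; 1:1 with 100 mM buffer, pH 3.0–8.0 (glycylglycine ≤5.0, bistrispropane ≥6.0); 18 h RT; spin; HPLC quantitation of soluble polypeptide.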

[5] = bistrispropane buffer, pH 6, pH 6.0, read-out: Solubility pH 6.0
[6] = bistrispropane buffer, pH 6.5, pH 6.5, read-out: Solubility pH 6.5
[7] = bistrispropane buffer, pH 7, pH 7.0, 18 hours at room temperature, Table 3, read-out: Solubility pH 7.0
[8] = bistrispropane buffer, pH 7, pH 7.0, read-out: Solubility pH 7.0
[9] = bistrispropane buffer, pH 7.5, pH 7.5, read-out: Solubility pH 7.5
[10] = bistrispropane buffer, pH 8, pH 8.0, read-out: Solubility pH 8.0
[11] = glycylglycine buffer, pH 3, pH 3.0, read-out: Solubility pH 3.0
[12] = glycylglycine buffer, pH 4, pH 4.0, 18 hours at room temperature, Table 2, read-out: Solubility pH 4.0
[13] = glycylglycine buffer, pH 4, pH 4.0, read-out: Solubility pH 4.0
[14] = glycylglycine buffer, pH 5, pH 5.0, read-out: Solubility pH 5.0

SMILES | EC50 [1] | ThT pH 4.0 lag time (h) [2] | EC50 [3] | solubility at 18 h [4, 5] | solubility at 18 h [4, 6] | solubility at 18 h [4, 7] | solubility at 18 h [4, 8] | solubility at 18 h [4, 9] | solubility at 18 h [4, 10] | solubility at 18 h [4, 11] | solubility at 18 h [4, 12] | solubility at 18 h [4, 13] | solubility at 18 h [4, 14] | ThT pH 4.0 lag time [2]
CC[C@H](C)[C@H](NC(=O)[C@@H]1CCCN1C(=O)CNC(=O)[C@H](Cc1ccccc1)NC(=O)[C@H](CC(N)=O)NC(=O)[C@H](CC(N)=O)NC(=O)[C@H](CO)NC(=O)[C@H](CO)NC(=O)[C@H](Cc1c[nH]cn1)NC(=O)[C@@H](NC(=O)[C@H](CC(C)C)NC(=O)[C@H](Cc1ccccc1)NC(=O)[C@H](CCC(=O)O)NC(=O)[C@H](C)NC(=O)[C@H](CC(C)C)NC(=O)[C@H](CCCNC(=N)N)NC(=O)[C@H](CCC(N)=O)NC(=O)[C@@H](NC(=O)[C@H](C)NC(=O)[C@@H]1CSSC[C@H](NC(=O)CC[C@H](NC(=O)CCCCCCCCCCCCCCCCCCC(=O)O)C(=O)O)C(=O)N[C@@H](CC(N)=O)C(=O)N[C@@H]([C@@H](C)O)C(=O)N[C@@H](C)C(=O)N[C@@H]([C@@H](C)O)C(=O)N1)[C@@H](C)O)C(C)C)C(=O)N[C@@H](CC(C)C)C(=O)N1CCC[C@H]1C(=O)N1CCC[C@H]1C(=O)N[C@H](C(=O)N[C@@H](CC(N)=O)C(=O)N[C@H](C(=O)NCC(=O)N[C@@H](CO)C(=O)N[C@@H](CC(N)=O)C(=O)N[C@H](C(=O)N1CCC[C@H]1C(N)=O)[C@@H](C)O)C(C)C)[C@@H](C)O [Example 108, N-alpha-[(S)-4-Carboxy-4-(19-carboxynonadecanoylamino)butyryl]-[des1,Glu14,Pro37]-pramlintide] ({C20 diacid-γGlu}-CNTATCATQRLAEFLVHSSNNFGPILPPTNVGSNTP-NH2; disulfide 1-6 (inferred)) | 0.0735 nM | 2.7 h | 0.088 nM | 193 µM (≈ 815 µg/mL) | > 200 µM | > 200 µM | > 200 µM | > 200 µM | > 200 µM | > 200 µM | > 200 µM | > 200 µM | > 200 µM | 
CC[C@H](C)[C@H](NC(=O)[C@@H]1CCCN1C(=O)CNC(=O)[C@H](Cc1ccccc1)NC(=O)[C@H](CC(N)=O)NC(=O)[C@H](CO)NC(=O)[C@H](CO)NC(=O)[C@H](CO)NC(=O)[C@H](Cc1c[nH]cn1)NC(=O)[C@H](CCCNC(=N)N)NC(=O)[C@H](CC(C)C)NC(=O)[C@H](Cc1ccccc1)NC(=O)[C@H](CCC(=O)O)NC(=O)[C@H](C)NC(=O)[C@H](CC(C)C)NC(=O)[C@H](CCCNC(=N)N)NC(=O)[C@H](CCC(N)=O)NC(=O)[C@@H](NC(=O)[C@H](C)NC(=O)[C@@H]1CSSC[C@H](NC(=O)[C@H](Cc2c[nH]cn2)NC(=O)CC[C@H](NC(=O)CCCCCCCCCCCCCCCCCCC(=O)O)C(=O)O)C(=O)N[C@@H](CC(N)=O)C(=O)N[C@@H]([C@@H](C)O)C(=O)N[C@@H](C)C(=O)N[C@@H]([C@@H](C)O)C(=O)N1)[C@@H](C)O)C(=O)N[C@@H](CC(C)C)C(=O)N[C@@H](CO)C(=O)N[C@@H](CO)C(=O)N[C@H](C(=O)N[C@@H](CC(N)=O)C(=O)N[C@H](C(=O)NCC(=O)N[C@@H](CO)C(=O)N[C@@H](Cc1c[nH]cn1)C(=O)N[C@H](C(=O)N[C@@H](Cc1ccc(O)cc1)C(N)=O)[C@@H](C)O)C(C)C)[C@@H](C)O [Example 111, N-alpha-[(S)-4-Carboxy-4-(19-carboxynonadecanoylamino)butyryl]-[His1,Glu14,Arg17,Ser21,Ser28,Ser29,His35]-pramlintide] ({C20 diacid-γGlu}-HCNTATCATQRLAEFLRHSSSNFGPILSSTNVGSHTY-NH2; disulfide 2-7 (inferred)) | 0.57 nM | >45 h | 0.394 nM | 2 µM (≈ 8.92 µg/mL) | 1 µM (≈ 4.46 µg/mL) |  | 1 µM (≈ 4.46 µg/mL) | 1 µM (≈ 4.46 µg/mL) | 3 µM (≈ 13.4 µg/mL) | > 200 µM | > 200 µM | > 200 µM | > 200 µM | >45 h
CC[C@H](C)[C@H](NC(=O)[C@@H]1CCCN1C(=O)CNC(=O)[C@H](Cc1ccccc1)NC(=O)[C@H](CC(N)=O)NC(=O)[C@H](CC(N)=O)NC(=O)[C@H](CO)NC(=O)[C@H](CO)NC(=O)[C@H](Cc1c[nH]cn1)NC(=O)[C@H](Cc1c[nH]cn1)NC(=O)[C@H](CC(C)C)NC(=O)[C@H](Cc1ccccc1)NC(=O)[C@H](CCC(=O)O)NC(=O)[C@H](C)NC(=O)[C@H](CC(C)C)NC(=O)[C@H](CCCNC(=N)N)NC(=O)[C@H](CCC(N)=O)NC(=O)[C@@H](NC(=O)[C@H](C)NC(=O)[C@@H]1CSSC[C@H](NC(=O)[C@H](CCCNC(=N)N)NC(=O)[C@H](CCC(=O)O)NC(=O)CC[C@H](NC(=O)CCCCCCCCCCCCCCCCCCC(=O)O)C(=O)O)C(=O)N[C@@H](CC(N)=O)C(=O)N[C@@H]([C@@H](C)O)C(=O)N[C@@H](C)C(=O)N[C@@H]([C@@H](C)O)C(=O)N1)[C@@H](C)O)C(=O)N[C@@H](CC(C)C)C(=O)N1CCC[C@H]1C(=O)N1CCC[C@H]1C(=O)N[C@H](C(=O)N[C@@H](CC(N)=O)C(=O)N[C@H](C(=O)NCC(=O)N[C@@H](CO)C(=O)N[C@@H](CC(N)=O)C(=O)N[C@H](C(=O)N[C@@H](Cc1ccc(O)cc1)C(N)=O)[C@@H](C)O)C(C)C)[C@@H](C)O [Example 25, N-alpha-[(S)-4-Carboxy-4-(19-carboxynonadecanoylamino)butyryl]-Glu-[Arg1,Glu14,His17]-pramlintide] ({C20 diacid-γGlu}-ERCNTATCATQRLAEFLHHSSNNFGPILPPTNVGSNTY-NH2; disulfide 3-8 (inferred)) | 0.184 nM | 2.7 h | 0.119 nM | > 200 µM | > 200 µM | > 200 µM | > 200 µM | > 200 µM | > 200 µM | > 200 µM | > 200 µM | > 200 µM | > 200 µM | 
CC[C@H](C)[C@H](NC(=O)[C@@H]1CCCN1C(=O)CNC(=O)[C@H](Cc1ccccc1)NC(=O)[C@H](CC(N)=O)NC(=O)[C@H](CC(N)=O)NC(=O)[C@H](CO)NC(=O)[C@H](CO)NC(=O)[C@H](Cc1c[nH]cn1)NC(=O)[C@H](Cc1c[nH]cn1)NC(=O)[C@H](CC(C)C)NC(=O)[C@H](Cc1ccccc1)NC(=O)[C@H](CCC(=O)O)NC(=O)[C@H](C)NC(=O)[C@H](CC(C)C)NC(=O)[C@H](CCCNC(=N)N)NC(=O)[C@H](CCC(N)=O)NC(=O)[C@@H](NC(=O)[C@H](C)NC(=O)[C@@H]1CSSC[C@H](NC(=O)[C@H](Cc2c[nH]cn2)NC(=O)[C@H](Cc2c[nH]cn2)NC(=O)[C@H](Cc2c[nH]cn2)NC(=O)CC[C@H](NC(=O)CCCCCCCCCCCCCCCCCCC(=O)O)C(=O)O)C(=O)N[C@@H](CC(N)=O)C(=O)N[C@@H]([C@@H](C)O)C(=O)N[C@@H](C)C(=O)N[C@@H]([C@@H](C)O)C(=O)N1)[C@@H](C)O)C(=O)N[C@@H](CC(C)C)C(=O)N1CCC[C@H]1C(=O)N[C@@H](Cc1c[nH]cn1)C(=O)N[C@H](C(=O)N[C@@H](CC(N)=O)C(=O)N[C@H](C(=O)NCC(=O)N[C@@H](CO)C(=O)N[C@@H](CC(N)=O)C(=O)N[C@H](C(=O)N[C@@H](Cc1ccc(O)cc1)C(N)=O)[C@@H](C)O)C(C)C)[C@@H](C)O [Example 36, N-alpha-[(S)-4-Carboxy-4-(19-carboxynonadecanoylamino)butyryl]-His-His-[His1,Glu14,His17,His29]-pramlintide] ({C20 diacid-γGlu}-HHHCNTATCATQRLAEFLHHSSNNFGPILPHTNVGSNTY-NH2; disulfide 4-9 (inferred)) | 0.191 nM | 1.3 h | 0.167 nM | > 200 µM | 14 µM (≈ 66.9 µg/mL) |  |  | 2 µM (≈ 9.56 µg/mL) | 60 µM (≈ 287 µg/mL) | > 200 µM | > 200 µM | > 200 µM | > 200 µM | 
